Patent publication US11858913B2, “Bicyclic pyridazinones and methods of use thereof” (ALIGOS THERAPEUTICS, INC., priority 2020, dated 2024)

Biological target: T1, human thyroid receptor beta ligand-binding domain (LBD) (Homo sapiens, UniProt P10828)
T1 construct: purchased Invitrogen
T1 sequence (P10828 217-461 limits assumed): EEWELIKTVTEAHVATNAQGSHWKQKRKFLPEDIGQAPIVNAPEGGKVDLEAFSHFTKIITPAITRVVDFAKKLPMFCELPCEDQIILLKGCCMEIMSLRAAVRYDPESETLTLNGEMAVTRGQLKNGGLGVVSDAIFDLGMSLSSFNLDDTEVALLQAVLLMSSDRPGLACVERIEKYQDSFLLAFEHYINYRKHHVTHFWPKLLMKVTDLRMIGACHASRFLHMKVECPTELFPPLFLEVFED
Experiment: THR Biochemical Assay (Assay 1): TR-FRET thyroid receptor beta coactivator assay
Conditions: GST-tagged THR-beta LBD 1 nM, fluorescein SRC2-2 coactivator peptide 200 nM, 1 hr at rt, TR-FRET ratio 520:495; read-out: Assay 1 (EC50, THR-beta agonist activity)
Excerpt: The TR-FRET thyroid receptor beta coactivator assay was used with slight, optimized modifications of the manufacturer's protocol (Invitrogen). The assay uses a terbium-labeled anti-GST antibody, a glutathione-S-transferase (GST) tagged human thyroid receptor, beta or alpha, ligand-binding domain (LBD), and a fluorescein labeled SRC2-2 coactivator peptide. The antibody interacts with the LBD, where the agonist also binds, resulting in increased affinity for the SRC2-2 coactivator peptide causing energy transfer […] the acceptor fluorophore and a FRET emission shift from 495 to 520 nm. The energy transfer was detected as an increase in the fluorescence emission of the fluorescein acceptor, and a decrease in the fluorescence emission of the terbium donor. The assay was performed in a 384-well black plate in a final volume of 20 μL. Serial dilution of various test agonists was performed in DMSO (1% final DMSO concentration) and added to the test plate. […] The TR-FRET was then measured on a Victor multilabel reader (Perkin Elmer) using an excitation wavelength of 340 nm with emission filters of 495 nm and 520 nm. The assay was quantified by expressing a ratio (520:495) of the intensities, and the resulting activation curves; EC50 values were generated using a sigmoidal dose response (variable slope) equation in GraphPad™ Prism 8.0.

Row | EC50 | Compound
1 | 50 to 250 nM | CC1CCc2c(Oc3c(Cl)cc(-n4nc(N)c(=O)[nH]c4=O)cc3Cl)n[nH]c(=O)c21 (single isomer, unassigned) [Compound 1b, 6-amino-2-(3,5-dichloro-4-((7-methyl-1-oxo-2,5,6,7-tetrahydro-1H-cyclopenta[d]pyridazin-4-yl)oxy)phenyl)-1,2,4-triazine-3,5(2H,4H)-dione]
2 | < 50 nM | CC1CCc2c(Oc3c(Cl)cc(-n4nc(N)c(=O)[nH]c4=O)cc3Cl)n[nH]c(=O)c21 (single isomer, unassigned) [Compound 1a, 6-amino-2-(3,5-dichloro-4-((7-methyl-1-oxo-2,5,6,7-tetrahydro-1H-cyclopenta[d]pyridazin-4-yl)oxy)phenyl)-1,2,4-triazine-3,5(2H,4H)-dione]
